The subject of data set [1] is Bronchiectasis clinical isolates, PA14 and PAO1. The data set is described as follows: Antimicrobial minimal inhibitory concentrations (MIC), microdilution. On the technique in general: In broth dilution the organism is exposed to a series of concentrations in liquid medium.
Data set [2] has as its system Pseudomonas aeruginosa PA14. On the set-up: method as in PMID 31709767. Particulars: previously published hit; read-out: IC50 Pyocyanin; cited from earlier work.
Data set [3] deals with T1, PqsR (Pseudomonas aeruginosa, UniProt Q9I4X0).
T1 construct: expressed in transfected cells; host or cells: Escherichia coli DH5α with plasmid pEAL08-2
T1 sequence (Q9I4X0 whole entry): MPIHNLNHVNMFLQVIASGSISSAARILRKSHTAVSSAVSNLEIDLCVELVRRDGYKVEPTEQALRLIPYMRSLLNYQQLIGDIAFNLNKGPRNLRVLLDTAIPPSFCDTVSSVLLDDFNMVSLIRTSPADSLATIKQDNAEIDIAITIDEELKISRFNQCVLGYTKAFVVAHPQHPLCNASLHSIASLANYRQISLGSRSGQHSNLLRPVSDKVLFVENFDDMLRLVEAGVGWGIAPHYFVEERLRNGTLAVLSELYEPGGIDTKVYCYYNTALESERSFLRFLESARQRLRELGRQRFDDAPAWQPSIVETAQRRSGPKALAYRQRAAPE
As to conditions: cited from earlier work.

Data set [4] has as its system Pseudomonas aeruginosa PA14. Nature of the data set: Pyocyanin assay in Pseudomonas aeruginosa. It counts as cell-based. As to conditions: PA14, 16 h, read-out: IC50 Pyocyanin. The method, then: 1.2.2 Pyocyanin assay in Pseudomonas aeruginosa
Inhibition of pyocyanin biosynthesis of compounds was measured spectrophotometrically as previously described.[2] Pseudomonas aeruginosa PA14 was grown in rich medium for 16 h under agitation with and without compound. Pyocyanin was extracted from cultures with chloroform, then re-extracted with 0.2 M HCl and quantified photometrically (520 nm). IC50 values were determined from dose-response curves of compounds using at least six different concentrations and fitting with non-linear regression analysis (OriginPro 2017–2020, Originlab Corporation). […]

Data set [5] in a line: Metabolic stability in mouse liver microsomes (MLM). (Microsomes from liver hold many membrane-bound enzymes, among them those of drug oxidation.)
Method: 1.3.2 Metabolic-Stability Tests in Mouse Liver Microsomes (MLM).
Phase I metabolic stability was evaluated by incubating the compound (1 μM) with 0.5 mg/mL MLM (Corning) and 1 mM NADPH at 37 °C for 0, 5, 10, 15 and 30 min. The enzymatic activity of the MLM was determined by measuring the metabolic stability of Verapamil, Diphenhydramine and Benzydamine (1 μM each).
The half-life (t1/2) was determined by analyzing the concentrations of the compounds at the different time points by HPLC-MS/MS.
The nature of data set [6]: Kinetic turbidimetric aqueous solubility. Particulars: PBS buffer, kinetic from dmso stock.
Where [7] appears, read: strain column 1 of 16 (strain heads not assignable).

Converted amounts (≈) assume the structure as drawn. Read-outs that look alike come from different tables or passages of the source.

What is called MIC is the lowest concentration that inhibits growth of the organism. Lower therefore signals a more susceptible organism. For `CC(C)(O/N=C(\C(=O)N[C@@H]1C(=O)N2C(C(=O)[O-])=C(C[n+]3ccccc3)CS[C@H]12)c1csc(N)n1)C(=O)O` [Ceftazidim], the MIC is 2 µg/mL (≈ 3.66 µM) in data set [1] (setting [7]); 4 µg/mL (≈ 7.32 µM) in data set [1] (strain column 2 of 16); 2 µg/mL (≈ 3.66 µM) in data set [1] (strain column 3 of 16); no more than 0.5 µg/mL in data set [1] (strain column 4 of 16); 2 µg/mL (≈ 3.66 µM) in data set [1] (strain column 5 of 16); 1 µg/mL (≈ 1.83 µM) in data set [1] (strain column 6 of 16). Besides, the MIC is no more than 0.5 µg/mL in data set [1] (strain column 7 of 16); 4 µg/mL (≈ 7.32 µM) in data set [1] (strain column 8 of 16); no more than 0.5 µg/mL in data set [1] (strain column 9 of 16); 16 µg/mL (≈ 29.3 µM) in data set [1] (strain column 10 of 16); no more than 0.5 µg/mL in data set [1] (strain column 11 of 16); 2 µg/mL (≈ 3.66 µM) in data set [1] (strain column 12 of 16). The MIC in data set [1] (strain column 13 of 16) is listed as no more than 0.5 µg/mL; in data set [1] (strain column 14 of 16), 4 µg/mL (≈ 7.32 µM); in data set [1] (strain column 15 of 16), 4 µg/mL (≈ 7.32 µM); in data set [1] (strain column 16 of 16), 2 µg/mL (≈ 3.66 µM).

What is called IC50 is the concentration that gives 50% inhibition. Consider `Nc1cc(NCc2ccc(F)cc2)cc(C(F)(F)F)n1` [Compound 1], for which the IC50 is 107 µM in data set [2]; 2.31 µM in data set [3] (read-out: IC50 PqsR, previously published hit); 2.3 µM in data set [3] (read-out: IC50 toward PqsR in heterologous lacZ reporter gene assay in E. coli).

For orientation: half-life means how long it takes for the measured level to halve. A word on the kinetic solubility: it is solubility judged after dilution from a stock solution rather than from solid. On to `Fc1ccc(CNc2ccnc(C(F)(F)F)c2)cc1` [Compound 2], for which, in data set [4], the IC50 was 176 ± 47.4 µM. In data set [5], the half-life at 1 μM was determined as 54 min. This compound also yielded a solubility (kinetic) at 5 min in data set [6] greater than 200 µM.

For `FC(F)(F)c1cc(NCc2ccc(Cl)cc2)ccn1` [Compound 3], in data set [4], the IC50 is 19 ± 1.2 µM. Also, the half-life at 1 μM in data set [5] was 44 min. The solubility (kinetic) at 5 min in data set [6] is greater than 200 µM.

For `FC(F)(F)c1cc(NCc2ccc(Br)cc2)ccn1` [Compound 4], the IC50 in data set [4] amounted to 14.4 ± 1.6 µM. Also, the half-life at 1 μM in data set [5] is 61 min. Moreover, the kinetic solubility at 5 min in data set [6] is greater than 200 µM.

Turning to `FC(F)(F)c1cc(NCc2cccc(Br)c2)ccn1` [Compound 5], in data set [4], the IC50 was determined as 71.4 ± 27.2 µM. The same compound registered a half-life at 1 μM in data set [5] of 20 min. This compound yielded a kinetic solubility at 5 min in data set [6] greater than 200 µM.

As to `FC(F)(F)c1cc(NCc2ccccc2Br)ccn1` [Compound 6], the IC50 in data set [4] worked out at 126 ± 10.6 µM. The same compound showed a half-life at 1 μM in data set [5] of 4 min. In data set [6], the solubility (kinetic) at 5 min was greater than 200 µM.

Turning to `FC(F)(F)c1cc(NCc2ccc(-c3ccc(Cl)cc3)cc2)ccn1` [Compound 7], the IC50 in data set [4] came out at 0.449 ± 0.074 µM. In data set [5], the half-life at 1 μM was greater than 40 min. The same compound showed a kinetic solubility at 5 min in data set [6] of 10 µM (≈ 3.63 µg/mL).

For `FC(F)(F)c1cc(NCc2ccc(-c3ccc(Cl)cc3)nc2)ccn1` [Compound 8], the IC50 in data set [4] was 3.3 ± 1.3 µM. The compound further yielded a half-life at 1 μM in data set [5] of 50 min. For the same compound, the solubility (kinetic) at 5 min in data set [6] was 38.9 µM (≈ 14.2 µg/mL).

Take `FC(F)(F)c1cc(NCc2ccc(-c3ccc(Cl)cc3)cn2)ccn1` [Compound 9]: the IC50 in data set [4] amounted to 2.9 ± 3.9 µM. The half-life at 1 μM in data set [5] is 57 min. The solubility (kinetic) at 5 min in data set [6] is 26.6 µM (≈ 9.68 µg/mL).

In the case of `FC(F)(F)c1cc(NCc2ccc(-c3ccc(Cl)cn3)cn2)ccn1` [Compound 10], the 50% inhibitory concentration (IC50) in data set [4] worked out at 35.1 ± 27.5 µM. The half-life at 1 μM in data set [5] came out at 75 min. Besides, in data set [6], the kinetic solubility at 5 min was greater than 200 µM.

For the compound `FC(F)(F)c1cc(NCc2ccc(-c3ccc(Cl)nc3)cn2)ccn1` [Compound 11], the IC50 in data set [4] stood at 7.2 ± 4.6 µM. This compound also had a half-life at 1 μM in data set [5] greater than 480 min. The compound further gave a kinetic solubility at 5 min in data set [6] of 161 µM (≈ 58.6 µg/mL).

As for `FC(F)(F)c1cc(OCc2ccc(-c3ccc(Cl)nc3)cn2)ccn1` [Compound 12], the IC50 in data set [4] was greater than 20 µM. Further, the half-life at 1 μM in data set [5] turned out to be 74 min. The same compound showed a solubility (kinetic) at 5 min in data set [6] of 48.1 µM (≈ 17.6 µg/mL).

Consider `FC(F)(F)c1cc(SCc2ccc(-c3ccc(Cl)nc3)cn2)ccn1` [Compound 13], for which, in data set [4], the IC50 amounted to 3.1 ± 0.9 µM. This compound gave a half-life at 1 μM in data set [5] of 6 min. The solubility (kinetic) at 5 min in data set [6] amounted to 42.3 µM (≈ 16.2 µg/mL).

Take `COc1ccc(-c2ccc(CNc3ccnc(C(F)(F)F)c3)nc2)cn1` [Compound 14]: the IC50 in data set [4] turned out to be 2.9 ± 0.8 µM. In data set [5], this compound showed a half-life at 1 μM of 77 min. For the same compound, the solubility (kinetic) at 5 min in data set [6] was greater than 200 µM.

Regarding `Cc1cc(-c2ccc(CNc3ccnc(C(F)(F)F)c3)nc2)cnc1Cl` [Compound 15], in data set [4], the IC50 came out at 1.9 ± 0.3 µM. This compound also came in with a half-life at 1 μM in data set [5] of less than 5 min. Further, in data set [6], the solubility (kinetic) at 5 min is 112 µM (≈ 42.6 µg/mL).

With `FC(F)(F)c1cc(NCc2ccc(-c3cnc(Cl)c(C(F)(F)F)c3)cn2)ccn1` [Compound 16], the IC50 in data set [4] came out at 2.1 ± 0.4 µM. In data set [5], this compound registered a half-life at 1 μM of 384 min. The kinetic solubility at 5 min in data set [6] stood at 101 µM (≈ 43.7 µg/mL).

Consider `FC(F)(F)c1cc(NCc2ccc(-c3cnc(Cl)c(Cl)c3)cn2)ccn1` [Compound 17], for which, in data set [4], the IC50 was 0.802 ± 0.2 µM. In data set [5], the half-life at 1 μM was 45 min. In data set [6], the solubility (kinetic) at 5 min came out at 76.2 µM (≈ 30.4 µg/mL).

`COc1ncc(-c2ccc(CNc3ccnc(C(F)(F)F)c3)nc2)cc1Cl` [Compound 18]: the IC50 in data set [4] turned out to be 1.5 ± 0.2 µM. Also, the half-life at 1 μM in data set [5] worked out at 2 min. The kinetic solubility at 5 min in data set [6] was found to be 42.4 µM (≈ 16.7 µg/mL).

Consider `FC(F)(F)c1cc(NCc2ccc(-c3ccc(Oc4ccccc4)nc3)cn2)ccn1` [Compound 19], for which the IC50 in data set [4] was 4.2 ± 1.1 µM. The half-life at 1 μM in data set [5] worked out at 35 min. In data set [6], this compound displayed a kinetic solubility at 5 min of 25.6 µM (≈ 10.8 µg/mL).

As to `FC(F)(F)c1cc(NCc2cnc(-c3ccc(Cl)c(Cl)c3)nc2)ccn1` [Compound 20], the IC50 in data set [4] was determined as 0.234 ± 0.057 µM. In data set [5], this compound returned a half-life at 1 μM of 61 min. Moreover, the kinetic solubility at 5 min in data set [6] came out at 16.6 µM (≈ 6.63 µg/mL).

In the case of `FC(F)(F)c1cc(NCc2cnc(-c3ccc(Oc4ccccc4)cc3)nc2)ccn1` [Compound 21], in data set [4], the IC50 came out at 0.32 ± 0.11 µM. This compound came in with a half-life at 1 μM in data set [5] of 32 min. For the same compound, the solubility (kinetic) at 5 min in data set [6] was 10.9 µM (≈ 4.6 µg/mL).

In the case of `CC(C)Oc1ccc(-c2ncc(CNc3ccnc(C(F)(F)F)c3)cn2)cc1` [Compound 22], the IC50 in data set [4] is 0.521 ± 0.3 µM. The half-life at 1 μM in data set [5] is greater than 85 min. In data set [6], the kinetic solubility at 5 min came out at 41.7 µM (≈ 16.2 µg/mL).

As for `FC(F)(F)c1cc(NCc2cnc(-c3ccc(C4CC4)cc3)nc2)ccn1` [Compound 23], the IC50 in data set [4] came to 0.591 ± 0.07 µM. Moreover, in data set [5], the half-life at 1 μM was 3 min. In data set [6], this compound gave a kinetic solubility at 5 min of 16.5 µM (≈ 6.11 µg/mL).

As for `CC(C)Oc1ncc(-c2ncc(CNc3ccnc(C(F)(F)F)c3)cn2)cc1Cl` [Compound 25], the IC50 in data set [4] is 0.523 ± 0.05 µM. The half-life at 1 μM in data set [5] was greater than 480 min. This compound also came in with a solubility (kinetic) at 5 min in data set [6] of 37.9 µM (≈ 16.1 µg/mL).

Take Colistin: the minimal inhibitory concentration (MIC) in data set [1] (setting [7]) is 2 µg/mL; in data set [1] (strain column 2 of 16), 2 µg/mL; in data set [1] (strain column 3 of 16), 1 µg/mL; in data set [1] (strain column 4 of 16), no more than 0.5 µg/mL; in data set [1] (strain column 5 of 16), 1 µg/mL; in data set [1] (strain column 6 of 16), 2 µg/mL. Further, the MIC in data set [1] (strain column 7 of 16) was determined as 1 µg/mL; in data set [1] (strain column 8 of 16), 2 µg/mL; in data set [1] (strain column 9 of 16) it was 2 µg/mL; in data set [1] (strain column 10 of 16), 1 µg/mL; in data set [1] (strain column 11 of 16), 1 µg/mL; in data set [1] (strain column 12 of 16) it was 2 µg/mL. Further, the MIC in data set [1] (strain column 13 of 16) is listed as 1 µg/mL; in data set [1] (strain column 14 of 16), 1 µg/mL; in data set [1] (strain column 15 of 16), 1 µg/mL; in data set [1] (strain column 16 of 16), 2 µg/mL.

Source of the values: paper PMC9929129, “Towards Translation of PqsR Inverse Agonists: From In Vitro Efficacy Optimization to In Vivo Proof‐of‐Principle” (Advanced Science, 2023).
